Laboratory results as given in ChEMBL document CHEMBL1129220, “Synthesis and structure-activity relationships of novel 3-Hty-substituted pneumocandins” (Bioorg Med Chem Lett, 1997).
Values after ≈ are worked out from the molar mass of the structure shown.

Columns and labels:
Format in all cases: functional
[1] = test system: Candida albicans; experiment: In vitro minimum fungicidal concentration against Candida albicans (MY 1055) using a whole cell broth microdilution assay.
[2] = test system: Mus musculus; experiment: In vivo anti-Candida activity was obtained in the target organ kidney assay (TOKA), a mouse model of disseminated candidiasis; 0% of animals in test group with kidneys were completely sterilized of Candida albicans at the ED99.9 dose
[3] = test system: Mus musculus; experiment: In vivo anti-Candida activity was obtained in the target organ kidney assay (TOKA), a mouse model of disseminated candidiasis; 20% of animals in test group with kidneys were completely sterilized of Candida albicans at the ED99.9 dose
[4] = test system: Mus musculus; experiment: In vivo anti-Candida activity was obtained in the target organ kidney assay (TOKA), a mouse model of disseminated candidiasis; 40% of animals in test group with kidneys were completely sterilized of Candida albicans at the ED99.9 dose

SMILES	MFC [1]	further results
CCC(C)CC(C)CCCCCCCCC(=O)N[C@@H]1C[C@@H](O)CNC(=O)[C@@H]2[C@@H](O)CCN2C(=O)[C@H]([C@@H](O)CC(N)=O)NC(=O)[C@H]([C@@H](O)Cc2ccc(O)c(CCO)c2)NC(=O)[C@@H]2C[C@@H](O)CN2C(=O)[C@H]([C@@H](C)O)NC1=O (some centres undefined)	0.5 µg/mL (≈ 0.464 µM)	
CCC(C)CC(C)CCCCCCCCC(=O)N[C@@H]1C[C@@H](O)CNC(=O)[C@@H]2[C@@H](O)CCN2C(=O)[C@H]([C@@H](O)CC(N)=O)NC(=O)[C@H]([C@@H](O)Cc2ccc3c(c2)CC(O)O3)NC(=O)[C@@H]2C[C@@H](O)CN2C(=O)[C@H]([C@@H](C)O)NC1=O (some centres undefined)	1 µg/mL (≈ 0.93 µM)	
CCC(C)CC(C)CCCCCCCCC(=O)N[C@@H]1C[C@@H](O)[C@@H](O)NC(=O)[C@@H]2[C@@H](O)CCN2C(=O)[C@H]([C@@H](O)CC(N)=O)NC(=O)[C@H]([C@@H](O)[C@H](O)c2ccc(O)c(NC(=O)CCN)c2)NC(=O)[C@@H]2C[C@@H](O)CN2C(=O)[C@H]([C@@H](C)O)NC1=O (some centres undefined)	0.25 µg/mL (≈ 0.217 µM)	ED99.9 [2]: 0.78 mg/kg
CCC(C)CC(C)CCCCCCCCC(=O)N[C@@H]1C[C@@H](O)[C@@H](O)NC(=O)[C@@H]2[C@@H](O)CCN2C(=O)[C@H]([C@@H](O)CC(N)=O)NC(=O)[C@H]([C@@H](O)[C@H](O)c2ccc(O)cc2)NC(=O)[C@@H]2C[C@@H](O)CN2C(=O)[C@H]([C@@H](C)O)NC1=O (some centres undefined)	0.25 µg/mL (≈ 0.235 µM)	ED99.9 [3]: 6 mg/kg
CCCc1cc(C[C@H](O)[C@@H]2NC(=O)[C@@H]3C[C@@H](O)CN3C(=O)[C@H]([C@@H](C)O)NC(=O)[C@H](NC(=O)CCCCCCCCC(C)CC(C)CC)C[C@@H](O)CNC(=O)[C@@H]3[C@@H](O)CCN3C(=O)[C@H]([C@@H](O)CC(N)=O)NC2=O)ccc1O (some centres undefined)	0.5 µg/mL (≈ 0.465 µM)	
CCC(C)CC(C)CCCCCCCCC(=O)N[C@@H]1C[C@@H](O)[C@@H](O)NC(=O)[C@@H]2[C@@H](O)CCN2C(=O)[C@H]([C@@H](O)CC(N)=O)NC(=O)[C@H]([C@@H](O)[C@H](O)c2ccc(O)c([N+](=O)[O-])c2)NC(=O)[C@@H]2C[C@@H](O)CN2C(=O)[C@H]([C@@H](C)O)NC1=O (some centres undefined)	8 µg/mL (≈ 7.21 µM)	
C=CCc1cc(C[C@H](O)[C@@H]2NC(=O)[C@@H]3C[C@@H](O)CN3C(=O)[C@H]([C@@H](C)O)NC(=O)[C@H](NC(=O)CCCCCCCCC(C)CC(C)CC)C[C@@H](O)CNC(=O)[C@@H]3[C@@H](O)CCN3C(=O)[C@H]([C@@H](O)CC(N)=O)NC2=O)ccc1O (some centres undefined)	1 µg/mL (≈ 0.932 µM)	
CCC(C)CC(C)CCCCCCCCC(=O)N[C@@H]1C[C@@H](O)CNC(=O)[C@@H]2[C@@H](O)CCN2C(=O)[C@H]([C@@H](O)CC(N)=O)NC(=O)[C@H]([C@@H](O)Cc2ccc(O)cc2)NC(=O)[C@@H]2C[C@@H](O)CN2C(=O)[C@H]([C@@H](C)O)NC1=O (some centres undefined)	0.25 µg/mL (≈ 0.242 µM)	
CCC(C)CC(C)CCCCCCCCC(=O)N[C@@H]1C[C@@H](O)[C@@H](O)NC(=O)[C@@H]2[C@@H](O)CCN2C(=O)[C@H]([C@@H](O)CC(N)=O)NC(=O)[C@H]([C@@H](O)[C@H](O)c2ccc(O)c(N)c2)NC(=O)[C@@H]2C[C@@H](O)CN2C(=O)[C@H]([C@@H](C)O)NC1=O (some centres undefined)	2 µg/mL (≈ 1.85 µM)	
CCC(C)CC(C)CCCCCCCCC(=O)N[C@@H]1C[C@@H](O)CNC(=O)[C@@H]2[C@@H](O)CCN2C(=O)[C@H]([C@@H](O)CC(N)=O)NC(=O)[C@H]([C@@H](O)Cc2ccc(O)c(C=O)c2)NC(=O)[C@@H]2C[C@@H](O)CN2C(=O)[C@H]([C@@H](C)O)NC1=O (some centres undefined)	1 µg/mL (≈ 0.942 µM)	
CCC(C)CC(C)CCCCCCCCC(=O)N[C@@H]1C[C@@H](O)[C@@H](O)NC(=O)[C@@H]2[C@@H](O)CCN2C(=O)[C@H]([C@@H](O)CC(N)=O)NC(=O)[C@H]([C@@H](O)[C@H](O)c2ccc(O)c(NC(=O)CN)c2)NC(=O)[C@@H]2C[C@@H](O)CN2C(=O)[C@H]([C@@H](C)O)NC1=O (some centres undefined)	0.25 µg/mL (≈ 0.22 µM)	ED99.9 [4]: 0.75 mg/kg
CCC(C)CC(C)CCCCCCCCC(=O)N[C@@H]1C[C@@H](O)[C@@H](O)NC(=O)[C@@H]2[C@@H](O)CCN2C(=O)[C@H]([C@@H](O)CC(N)=O)NC(=O)[C@H]([C@@H](O)[C@H](O)c2ccc(O)c(NC(=O)CS)c2)NC(=O)[C@@H]2C[C@@H](O)CN2C(=O)[C@H]([C@@H](C)O)NC1=O (some centres undefined)	2 µg/mL (≈ 1.73 µM)	
CCC(C)CC(C)CCCCCCCCC(=O)N[C@@H]1C[C@@H](O)[C@@H](O)NC(=O)[C@@H]2[C@@H](O)CCN2C(=O)[C@H]([C@@H](O)CC(N)=O)NC(=O)[C@H]([C@@H](O)[C@H](O)c2cc(I)c(O)c(I)c2)NC(=O)[C@@H]2C[C@@H](O)CN2C(=O)[C@H]([C@@H](C)O)NC1=O (some centres undefined)	8 µg/mL (≈ 6.07 µM)	
CCC(C)CC(C)CCCCCCCCC(=O)N[C@@H]1C[C@@H](O)CNC(=O)[C@@H]2[C@@H](O)CCN2C(=O)[C@H]([C@@H](O)CC(N)=O)NC(=O)[C@H]([C@@H](O)Cc2ccc(O)c(I)c2)NC(=O)[C@@H]2C[C@@H](O)CN2C(=O)[C@H]([C@@H](C)O)NC1=O (some centres undefined)	0.5 µg/mL (≈ 0.431 µM)	
CCC(C)CC(C)CCCCCCCCC(=O)N[C@@H]1C[C@@H](O)[C@@H](O)NC(=O)[C@@H]2[C@@H](O)CCN2C(=O)[C@H]([C@@H](O)CC(N)=O)NC(=O)[C@H]([C@@H](O)[C@H](O)c2ccc(O)c(NC(C)=O)c2)NC(=O)[C@@H]2C[C@@H](O)CN2C(=O)[C@H]([C@@H](C)O)NC1=O (some centres undefined)	1 µg/mL (≈ 0.891 µM)	
CCC(C)CC(C)CCCCCCCCC(=O)N[C@@H]1C[C@@H](O)[C@@H](O)NC(=O)[C@@H]2[C@@H](O)CCN2C(=O)[C@H]([C@@H](O)CC(N)=O)NC(=O)[C@H]([C@@H](O)[C@H](O)c2ccc(O)c(I)c2)NC(=O)[C@@H]2C[C@@H](O)CN2C(=O)[C@H]([C@@H](C)O)NC1=O (some centres undefined)	4 µg/mL (≈ 3.36 µM)	
CCC(C)CC(C)CCCCCCCCC(=O)N[C@@H]1C[C@@H](O)CNC(=O)[C@@H]2[C@@H](O)CCN2C(=O)[C@H]([C@@H](O)CC(N)=O)NC(=O)[C@H]([C@@H](O)Cc2ccc(O)c(O)c2)NC(=O)[C@@H]2C[C@@H](O)CN2C(=O)[C@H]([C@@H](C)O)NC1=O (some centres undefined)	0.5 µg/mL (≈ 0.477 µM)	
CCC(C)CC(C)CCCCCCCCC(=O)N[C@@H]1C[C@@H](O)CNC(=O)[C@@H]2[C@@H](O)CCN2C(=O)[C@H]([C@@H](O)CC(N)=O)NC(=O)[C@H]([C@@H](O)Cc2ccc(O)c(N=[N+]=[N-])c2)NC(=O)[C@@H]2C[C@@H](O)CN2C(=O)[C@H]([C@@H](C)O)NC1=O (some centres undefined)	4 µg/mL (≈ 3.72 µM)	
CCC(C)CC(C)CCCCCCCCC(=O)N[C@@H]1C[C@@H](O)CNC(=O)[C@@H]2[C@@H](O)CCN2C(=O)[C@H]([C@@H](O)CC(N)=O)NC(=O)[C@H]([C@@H](O)Cc2ccc(O)c(N)c2)NC(=O)[C@@H]2C[C@@H](O)CN2C(=O)[C@H]([C@@H](C)O)NC1=O (some centres undefined)	2 µg/mL (≈ 1.91 µM)	
CCC(C)CC(C)CCCCCCCCC(=O)N[C@@H]1C[C@@H](O)[C@@H](O)NC(=O)[C@@H]2[C@@H](O)CCN2C(=O)[C@H]([C@@H](O)CC(N)=O)NC(=O)[C@H]([C@@H](O)[C@H](O)c2ccc(O)c(NC(=O)CCC(=O)O)c2)NC(=O)[C@@H]2C[C@@H](O)CN2C(=O)[C@H]([C@@H](C)O)NC1=O (some centres undefined)	0.25 µg/mL (≈ 0.212 µM)	ED99.9 [2]: 6 mg/kg
C=Cc1cc(C[C@H](O)[C@@H]2NC(=O)[C@@H]3C[C@@H](O)CN3C(=O)[C@H]([C@@H](C)O)NC(=O)[C@H](NC(=O)CCCCCCCCC(C)CC(C)CC)C[C@@H](O)CNC(=O)[C@@H]3[C@@H](O)CCN3C(=O)[C@H]([C@@H](O)CC(N)=O)NC2=O)ccc1O (some centres undefined)	1 µg/mL (≈ 0.944 µM)	
CCc1cc(C[C@H](O)[C@@H]2NC(=O)[C@@H]3C[C@@H](O)CN3C(=O)[C@H]([C@@H](C)O)NC(=O)[C@H](NC(=O)CCCCCCCCC(C)CC(C)CC)C[C@@H](O)CNC(=O)[C@@H]3[C@@H](O)CCN3C(=O)[C@H]([C@@H](O)CC(N)=O)NC2=O)ccc1O (some centres undefined)	1 µg/mL (≈ 0.942 µM)	
CCC(C)CC(C)CCCCCCCCC(=O)N[C@@H]1C[C@@H](O)[C@@H](O)NC(=O)[C@@H]2[C@@H](O)CCN2C(=O)[C@H]([C@@H](O)CC(N)=O)NC(=O)[C@H]([C@@H](O)[C@H](O)c2ccc(O)c(N=[N+]=[N-])c2)NC(=O)[C@@H]2C[C@@H](O)CN2C(=O)[C@H]([C@@H](C)O)NC1=O (some centres undefined)	0.5 µg/mL (≈ 0.452 µM)	
CCC(C)CC(C)CCCCCCCCC(=O)N[C@@H]1C[C@@H](O)CNC(=O)[C@@H]2[C@@H](O)CCN2C(=O)[C@H]([C@@H](O)CC(N)=O)NC(=O)[C@H]([C@@H](O)Cc2ccc(O)c(C(=O)OC)c2)NC(=O)[C@@H]2C[C@@H](O)CN2C(=O)[C@H]([C@@H](C)O)NC1=O (some centres undefined)	2 µg/mL (≈ 1.83 µM)	
CCC(C)CC(C)CCCCCCCCC(=O)N[C@@H]1C[C@@H](O)CNC(=O)[C@@H]2[C@@H](O)CCN2C(=O)[C@H]([C@@H](O)CC(N)=O)NC(=O)[C@H]([C@@H](O)Cc2ccc(O)c([N+](=O)[O-])c2)NC(=O)[C@@H]2C[C@@H](O)CN2C(=O)[C@H]([C@@H](C)O)NC1=O (some centres undefined)	2 µg/mL (≈ 1.85 µM)	
